Data on 18 compounds can be found in patent US20240400512A1, “ANALOGS OF N,N,N-TRIMETHYL-4-PHOSPHORYLOXYTRYPTAMINE” (Terran Biosciences Inc., priority 2021, published 2024).

A short description of this data set: Metabolic stability in human liver microsomes. The data set is classed as in vitro ADME. The following applies: for in vitro clearance compared with 4-OH-Dimethylethyltryptamine iodide (reference compound B) / half-life and intrinsic clearance compared to the respective reference compounds / in vitro clearance compared with 4-OH-Trimethyltryptamine iodide (reference compound A): based on Table 2; for half-life at 0.25 μM / microsomal CLint at 0.25 μM: pH 7.4, NADPH; for half-life at 0.25 μM / microsomal CLint at 0.25 μM / CLint (μL/min/mg protein) / t1/2: 37° C.; for microsomal CLint at 0.25 μM: read-out: CLint (μL/min/mg protein); for CLint (μL/min/mg protein) / t1/2: NADPH; for Minus cofactor control (% of 0 min): incubation without cofactor, comment: possible chemical instability or non-cofactor dependent enzymatic degradation. The protocol:
Microsomal Assay: Human liver microsomes (20 mg/mL) are obtained. B-nicotinamide adenine dinucleotide phosphate, reduced form (NADPH), magnesium chloride (MgCl2), and dimethyl sulfoxide (DMSO) are purchased from Sigma-Aldrich.
Determination of Metabolic Stability: 7.5 mM stock solutions of test compounds are prepared in DMSO. […] The diluted microsomes are added to wells of a 96-well deep-well polypropylene plate in triplicate. […] Reactions are initiated by addition of pre-warmed NADPH solution. The final reaction volume is 0.5 mL and contains 4.0 mg/mL human liver microsomes, 0.25 μM test compound, 2 mM NADPH in 0.1 M potassium phosphate buffer, pH 7.4, and 3 mM MgCl2. The reaction mixtures are incubated at 37° C., and 50 pL aliquots are removed at 0, 5, 10, 20, and 30 min or other suitable interval and added to shallow-well 96-well plates containing 50 pL of ice-cold CAN (acetonitrile) with internal standard to stop the reactions. The plates are stored at 4° C. for 20 minutes after which 100 pL of water is added to the wells of the plate before centrifugation to pellet precipitated proteins. Supernatants are transferred to another 96-well plate and analysed for amounts of the test compound remaining by LC-MS/MS using, for example, an Applied Bio-systems API 4000®) mass spectrometer. The same procedure is followed for the non-deuterated counterparts of the test compounds and for the positive control, 7-ethoxy coumarin (1 μM). Testing can be done in triplicate.
Data analysis: The in vitro T1/2s for the test compounds is calculated from the slopes of the linear regression of % test compound remaining (In) vs incubation time.
where k=−[slope of linear regression of % parent remaining (In) vs incubation time. The apparent intrinsic clearance is calculated using the following equation: […]
Data analysis can be performed using Microsoft Excel® Software.

As to `[2H]C([2H])(c1c[nH]c2cccc(O)c12)C([2H])([2H])[N+](CC)(C([2H])([2H])[2H])C([2H])([2H])[2H].[I-]` [Compound 6, 3-(2-(Ethylbis(methyl-d3)-λ^4-azaneyl)ethyl-1,1,2,2-d4)-4-hydroxy-1H-indole iodide], the “in vitro clearance compared with 4-OH-Dimethylethyltryptamine iodide (reference compound B)” value is listed as “significantly lower in vitro clearance”, the half-life at 0.25 μM is 5.28 h and the microsomal CLint at 0.25 μM was 4.38 µL/min/mg.

Take `CC[N+](C)(C)CCc1c[nH]c2cccc(O)c12.[I-]` [reference compound B, 4-OH-Dimethylethyltryptamine iodide, reference compound]: the “CLint (μL/min/mg protein)” value was found to be 5.41 μL/min/mg protein and the “t1/2” value is recorded as 256 min.

`[2H]C([2H])(c1c[nH]c2cccc(OC(C)=O)c12)C([2H])([2H])[N+](C)(C([2H])([2H])[2H])C([2H])([2H])[2H].[I-]` [Compound 11, 4-Acetoxy-3-(2-(methylbis(methyl-d3)-λ^4-azaneyl)ethyl-1,1,2,2-d4)-1H-indole iodide]: the “half-life and intrinsic clearance compared to the respective reference compounds” value is “exhibit differences in half-life and intrinsic clearance”; the “Minus cofactor control (% of 0 min)” value is given as “Minus cofactor control low (51% of 0 min)”; the half-life at 0.25 μM was 0.797 h; the microsomal CLint at 0.25 μM came out at 29 µL/min/mg.

In the case of `[2H]C([2H])(c1c[nH]c2cccc(OC(C)=O)c12)C([2H])([2H])[N+](C)(C)C.[I-]` [Compound 7, 4-Acetoxy-3-(2-(trimethyl-λ^4-azaneyl)ethyl-1,1,2,2-d4)-1H-indole iodide], the “half-life and intrinsic clearance compared to the respective reference compounds” value is “exhibit differences in half-life and intrinsic clearance”; the “Minus cofactor control (% of 0 min)” value was “Minus cofactor control low (52% of 0 min)”; the half-life at 0.25 μM was 0.778 h; the microsomal CLint at 0.25 μM came out at 29.7 µL/min/mg.

As for `[2H]C([2H])(c1c[nH]c2cccc(OC(C)=O)c12)C([2H])([2H])[N+](CC)(C([2H])([2H])[2H])C([2H])([2H])[2H].[I-]` [Compound 12, 4-Acetoxy-3-(2-(ethylbis(methyl-d3)-λ^4-azaneyl)ethyl-1,1,2,2-d4)-1H-indole iodide], the “half-life and intrinsic clearance compared to the respective reference compounds” value was “exhibit differences in half-life and intrinsic clearance”; the “Minus cofactor control (% of 0 min)” value is “Minus cofactor control low (40% of 0 min)”; the half-life at 0.25 μM was determined as 0.558 h; the microsomal CLint at 0.25 μM worked out at 41.4 µL/min/mg.

Consider `[2H]C([2H])(c1c[nH]c2cccc(OC(C)=O)c12)C([2H])([2H])[N+](C)(C)CCC.[I-]` [Compound 9, 4-Acetoxy-3-(2-(dimethyl(propyl)-λ^4-azaneyl)ethyl-1,1,2,2-d4)-1H-indole iodide], for which the “half-life and intrinsic clearance compared to the respective reference compounds” value is “exhibit differences in half-life and intrinsic clearance”; the “Minus cofactor control (% of 0 min)” value is listed as “Minus cofactor control low (20% of 0 min)”; the half-life at 0.25 μM is 0.312 h; the microsomal CLint at 0.25 μM came out at 74.3 µL/min/mg.

On to `[2H]C([2H])(c1c[nH]c2cccc(O)c12)C([2H])([2H])[N+](C([2H])([2H])[2H])(C([2H])([2H])[2H])C([2H])([2H])[2H].[I-]` [Compound 4, 4-Hydroxy-3-(2-(tris(methyl-d3)-λ^4-azaneyl)ethyl-1,1,2,2-d4)-1H-indole iodide], for which the “in vitro clearance compared with 4-OH-Trimethyltryptamine iodide (reference compound A)” value was “significantly lower in vitro clearance”, the half-life at 0.25 μM turned out to be 57.7 h and the microsomal CLint at 0.25 μM is 0.401 µL/min/mg.

As for `[2H]C([2H])(c1c[nH]c2cccc(O)c12)C([2H])([2H])[N+](C)(C)CCC.[I-]` [Compound 3, 3-(2-(Dimethyl(propyl)-λ^4-azaneyl)ethyl-1,1,2,2-d4)-4-hydroxy-1H-indole iodide], the half-life at 0.25 μM stood at 16.2 h and the microsomal CLint at 0.25 μM is 1.42 µL/min/mg.

As to `CC(=O)Oc1cccc2[nH]cc(CC[N+](C)(C)C)c12.[I-]` [reference compound D, 4-OAc-Trimethyltryptamine iodide, reference compound], the “CLint (μL/min/mg protein)” value amounted to 28.3 μL/min/mg protein, the “t1/2” value stood at 48.9 min and the “Minus cofactor control (% of 0 min)” value is recorded as “Minus cofactor control low (51% of 0 min)”.

On to `CCC[N+](C)(C)CCc1c[nH]c2cccc(OC(C)=O)c12.[I-]` [reference compound F, 4-OAc-Dimethylpropyltryptamine iodide, reference compound], for which the “CLint (μL/min/mg protein)” value is reported as 62.7 μL/min/mg protein, the “t1/2” value is on record as 22.1 min and the “Minus cofactor control (% of 0 min)” value is recorded as “Minus cofactor control low (27% of 0 min)”.

`[2H]C([2H])(c1c[nH]c2cccc(O)c12)C([2H])([2H])[N+](C)(C)C.[I-]` [Compound 1, 4-Hydroxy-3-(2-(trimethyl-λ^4-azaneyl)ethyl-1,1,2,2-d4)-1H-indole iodide]: the “in vitro clearance compared with 4-OH-Trimethyltryptamine iodide (reference compound A)” value is listed as “significantly lower in vitro clearance”, the half-life at 0.25 μM came to 4.12 h and the microsomal CLint at 0.25 μM was 5.6 µL/min/mg.

Consider `[2H]C([2H])(c1c[nH]c2cccc(OC(C)=O)c12)C([2H])([2H])[N+](C)(C)CC.[I-]` [Compound 8, 4-Acetoxy-3-(2-(ethyldimethyl-λ^4-azaneyl)ethyl-1,1,2,2-d4)-1H-indole iodide], for which the “half-life and intrinsic clearance compared to the respective reference compounds” value was “exhibit differences in half-life and intrinsic clearance”; the “Minus cofactor control (% of 0 min)” value is “Minus cofactor control low (37% of 0 min)”; the half-life at 0.25 μM came out at 0.477 h; the microsomal CLint at 0.25 μM amounted to 48.4 µL/min/mg.

With `[2H]C([2H])(c1c[nH]c2cccc(OC(C)=O)c12)C([2H])([2H])[N+](C([2H])([2H])[2H])(C([2H])([2H])[2H])C([2H])([2H])[2H].[I-]` [Compound 10, 4-Acetoxy-3-(2-(tris(methyl-d3)-λ^4-azaneyl)ethyl-1,1,2,2-d4)-1H-indole iodide], the “half-life and intrinsic clearance compared to the respective reference compounds” value is “exhibit differences in half-life and intrinsic clearance”; the “Minus cofactor control (% of 0 min)” value is “Minus cofactor control low (44% of 0 min)”; the half-life at 0.25 μM was determined as 0.775 h; the microsomal CLint at 0.25 μM stood at 29.8 µL/min/mg.

For `COc1ccc2c(c1)[C@]13CCCC[C@@H]1[C@H](C2)N(C)CC3` [dextromethorphan, reference compound], the “CLint (μL/min/mg protein)” value was 54.9 μL/min/mg protein and the “t1/2” value was 25.3 min.

As for `C[N+](C)(C)CCc1c[nH]c2cccc(O)c12.[I-]` [reference compound A, 4-OH-Trimethyltryptamine iodide, reference compound], the “CLint (μL/min/mg protein)” value amounted to 6.81 μL/min/mg protein and the “t1/2” value came out at 204 min.

As for `[2H]C([2H])(c1c[nH]c2cccc(O)c12)C([2H])([2H])[N+](C)(C([2H])([2H])[2H])C([2H])([2H])[2H].[I-]` [Compound 5, 4-Hydroxy-3-(2-(methylbis(methyl-d3)-λ^4-azaneyl)ethyl-1,1,2,2-d4)-1H-indole iodide], the “in vitro clearance compared with 4-OH-Trimethyltryptamine iodide (reference compound A)” value was “significantly lower in vitro clearance”, the half-life at 0.25 μM turned out to be 101 h and the microsomal CLint at 0.25 μM is 0.228 µL/min/mg.

With `[2H]C([2H])(c1c[nH]c2cccc(O)c12)C([2H])([2H])[N+](C)(C)CC.[I-]` [Compound 2, 3-(2-(Ethyldimethyl-λ^4-azaneyl)ethyl-1,1,2,2-d4)-4-hydroxy-1H-indole iodide], the “in vitro clearance compared with 4-OH-Dimethylethyltryptamine iodide (reference compound B)” value is “significantly lower in vitro clearance”, the half-life at 0.25 μM came to 8.23 h and the microsomal CLint at 0.25 μM stood at 2.81 µL/min/mg.

In the case of `CC[N+](C)(C)CCc1c[nH]c2cccc(OC(C)=O)c12.[I-]` [reference compound E, 4-OAc-Dimethylethyltryptamine iodide, reference compound], the “CLint (μL/min/mg protein)” value amounted to 46.4 μL/min/mg protein, the “t1/2” value was found to be 29.9 min and the “Minus cofactor control (% of 0 min)” value is “Minus cofactor control low (38% of 0 min)”.
